In patent US10280179B2, “Spiroquinoxaline derivatives as inhibitors of non-apoptotic regulated cell-death” (Helmholtz Zentrum Munchen—Deutches Forschungszentrum Fur …, priority 2013, dated 2019):

Legend:
Type in all cases: cell-based
[1] = tested on: mouse hippocampal cell line (Ht22); assay: Inhibition of glutamate-induced non-apoptotic cell death (Example B.2); conditions: HT-22, Ht22 cells, glutamate-induced cell death, read-out: Ht22/GLU
Text: Inhibition of Glutamate-Induced Non-Apoptotic Cell Death by Compounds of the Present Invention
Glutamate toxicity is conferred on cells from the mouse hippocampal cell line (Ht22) by inhibition of the cysteine/glutamate antiporter, System xc-, leading to impaired cysteine uptake and subsequent GSH depletion. This model is frequently used for mimicking glutathione depletion following oxidative stress in stroke, brain trauma and other neurodegenerative diseases and cellular conditions following ischemia (for example: van Leyen et al, J. Neurochem. 92:824-30 (2005)).
Compounds disclosed herein were evaluated for their ability to promote cell survival upon administration of a lethal dose of glutamate (GLU) to the cell-culture medium.
Briefly, Ht22 cells (ATCC) were propagated DMEM supplemented with 10% FBS/1% Penicillin-Streptomycin, and then seeded onto 96-well plates at a concentration of 2,000 cells/well in 100 μL of MEDIA, simultaneously with glutamate (Sigma Aldrich) to a final concentration of 5 mM, together with increasing concentrations of the compound to be tested (0.5 pM to 100 μM), and the plates incubated at 37° C./5% CO2 for 72 hours. Compound dilutions were prepared from 10 mM stocks dissolved in DMSO and diluted in media. Cells treated with glutamate alone were used as negative control and alpha-tocopherol (Sigma Aldrich) was used as positive control. Compound concentrations were tested in triplicate. After incubation, cell survival was detected and quantified as described in Example B.1.

Pfa1 cells = assay: Inhibition of non-apoptotic cell death after tamoxifen-induced GPx4 knockout in a recombinant cell line (Example B.4); conditions: Mus musculus, read-out: Pfa1/TAM IC50
Text: Inhibition of Non-Apoptotic Cell-Death by Compounds Disclosed Herein Using a Recombinant Cell Line
To combat high intracellular ROS levels, mammalian cells have evolved an intricate network of ROS scavenging in cells, in which the thioredoxin and glutathione (GSH) dependent systems prevail. […] Knockout of GPx4 in neurons causes massive neurodegeneration in cortical, cerebellar and hippocampal neurons underscoring the high relevance of ROS-induced cell death signaling in the brain. Briefly, immortalised fibroblasts from these mice were made to contain tamoxifen-inducible CreERT2, which catalyzes the functional ablation of both copies of GPx4 and resulting in a complete knockout of GPx4, a massive ROS burst, and cell death in cell culture. These cells (Pfa1 cells) were used to characterize compounds of the present invention, whereby tamoxifen (TAM) was given on day 0 along with the compound under test, and 72 hours later cell survival was evaluated using AlamarBlue.

[2] = Cellular toxicity, same assay as Example B.4 without TAM (Example B.5); conditions: mouse; Pfa1 cells without TAM; read-out: TC50 (the source's name)
Text: Cellular Toxicity of Compounds of the Invention
An estimate of the toxicity for compounds of the invention was obtained by using the same assay as described in Example B.4, but without the addition of TAM. […] Such TC50 values obtained for certain compounds disclosed herein, together with an approximate therapeutic window (estimated by dividing each TC50 by the corresponding IC50 determined from example B.4) are shown in Table 3.

Compound | IC50 [1] | IC50 (Pfa1 cells) | CC50 [2]
c1ccc(CCCNC2=Nc3ccccc3NC23CCSCC3)cc1 [O/S-356] | < 2000 nM | < 2000 nM | 20 to 50 µM
CCCCCCCCN1CCC2(CC1)Nc1ccccc1N=C2NCc1ccccc1 [N-234] | < 100 nM | < 100 nM | 5 to 10 µM
c1ccc(CCNC2=Nc3ccccc3NC23CCNCC3)cc1 [N-226] | < 100 nM | < 100 nM | 10 to 20 µM
Fc1cc(Cl)ccc1CNC1=Nc2ccccc2NC12CCCCC2 [C-61] | < 500 nM | < 200 nM | 20 to 50 µM
Cc1cc2c(cc1C)NC1(CCCCCCC1)C(NCc1ccccc1)=N2 [C-241] | < 200 nM | < 500 nM | 5 to 10 µM
c1ccc(CNC2=Nc3ccccc3NC23CCCCCCC3)cc1 [C-236] | < 500 nM | < 500 nM | 10 to 20 µM
Clc1ccc(CNC2=Nc3ccccc3NC23CCNCC3)cc1Cl [N-211] | < 50 nM | < 10 nM | 1 to 2 µM
Fc1cccc(F)c1CNC1=Nc2ccccc2NC12CCCCC2 [C-222] | < 1000 nM | < 200 nM | 20 to 50 µM
Cc1cc2c(cc1C)NC1(CCNCC1)C(NCc1ccc(Cl)c(Cl)c1)=N2 [N-232] | < 10 nM | < 10 nM | 1 to 2 µM
c1ccc(CCCCNC2=Nc3ccccc3NC23CCCCC3)cc1 [C-232] | < 1000 nM | < 2000 nM | 20 to 50 µM
Cc1cccc(CNC2=Nc3ccccc3NC23CCCCC3)c1 [C-11] | < 1000 nM | < 500 nM | 10 to 20 µM
Fc1cccc(F)c1CNC1=Nc2cc(Cl)c(Cl)cc2NC12CCCCC2 [C-240] | < 200 nM | < 500 nM | 5 to 10 µM
Cc1cc2c(cc1C)NC1(CCNCC1)C(NCc1ccc(Cl)cc1)=N2 [N-214] | < 50 nM | < 10 nM | 1 to 2 µM
Clc1cc2c(cc1Cl)NC1(CCNCC1)C(NCc1ccccc1Cl)=N2 [N-207] | < 50 nM | < 10 nM | 0.5 to 1 µM
Cc1cccc(CNC2=Nc3cc(Cl)c(Cl)cc3NC23CCCCC3)c1 [C-268] | < 500 nM | < 100 nM | 10 to 20 µM
COc1cccc(CNC2=Nc3ccccc3NC23CCNCC3)c1 [N-14] | < 200 nM | < 500 nM | 20 to 50 µM
Clc1cc2c(cc1Cl)NC1(CCCCCCC1)C(NCc1ccccc1)=N2 [C-237] | < 500 nM | < 500 nM | 10 to 20 µM
Fc1cc2c(cc1F)NC1(CCOCC1)C(NCc1ccccc1)=N2 [O/S-346] | < 1000 nM | < 500 nM | 50 to 100 µM
FC(F)(F)c1cccc(CNC2=Nc3ccccc3NC23CCCCC3)c1 [C-23] | < 500 nM | < 50 nM | 10 to 20 µM

Compound | IC50 [1] | IC50 (Pfa1 cells) | CC50 [2]
CC(C)(C)c1ccc(CNC2=Nc3ccccc3NC23CCNCC3)cc1 [N-227] | < 10 nM | < 10 nM | 0.5 to 1 µM
c1ccc(CCCCNC2=Nc3ccccc3NC23CCOCC3)cc1 [O/S-358] | < 2000 nM | < 2000 nM | 10 to 20 µM
Clc1ccc(CNC2=Nc3ccccc3NC23CCSCC3)cc1 [O/S-169] | < 1000 nM | < 1000 nM | 20 to 50 µM
Fc1cccc(CNC2=Nc3ccccc3NC23CCNCC3)c1 [N-5] | < 50 nM | < 100 nM | 5 to 10 µM
Clc1ccc(CNC2=Nc3ccccc3NC23CCOCC3)c(Cl)c1 [O/S-354] | < 500 nM | < 500 nM | 20 to 50 µM
CCCCCCCC(=O)N1CCC2(CC1)Nc1ccccc1N=C2NCc1ccccc1 [N-216] | < 500 nM | < 500 nM | 10 to 20 µM
Fc1cccc(CNC2=Nc3ccccc3NC23CCOCC3)c1 [O/S-5] | < 5000 nM | < 2000 nM | 50 to 100 µM
Cc1cc(C)cc(CNC2=Nc3ccccc3NC23CCCCC3)c1 [C-225] | < 500 nM | < 500 nM | 10 to 20 µM
Clc1ccc(CNC2=Nc3ccccc3NC23CCCCC3)c(Cl)c1 [C-230] | < 500 nM | < 100 nM | 20 to 50 µM
Clc1ccc(CNC2=Nc3cc(Cl)c(Cl)cc3NC23CCNCC3)cc1 [N-208] | < 50 nM | < 10 nM | 0.5 to 1 µM
c1ccc(CCCNC2=Nc3ccccc3NC23CCCCC3)cc1 [C-221] | < 1000 nM | < 1000 nM | 5 to 10 µM
Cc1cc2c(cc1C)NC1(CCNCC1)C(NCc1cccc(Cl)c1)=N2 [N-111] | < 10 nM | < 10 nM | 1 to 2 µM
c1ccc(CCCNC2=Nc3ccccc3NC23CCNCC3)cc1 [N-228] | < 50 nM | < 100 nM | 2 to 5 µM
Cc1cc2c(cc1C)NC1(CCCCCC1)C(NCc1ccccc1)=N2 [C-239] | < 200 nM | < 200 nM | 10 to 20 µM
c1ccc(CCNC2=Nc3ccccc3NC23CCOCC3)cc1 [O/S-347] | < 5000 nM | < 5000 nM | 50 to 100 µM
FC(F)(F)c1cccc(CNC2=Nc3ccccc3NC23CCOCC3)c1 [O/S-23] | < 1000 nM | < 500 nM | 20 to 50 µM
c1ccc(CNC2=Nc3ccccc3NC23CCCNCC3)cc1 (centres unmarked) [N-212] | < 1000 nM | < 1000 nM | 10 to 20 µM
O=S1(=O)CCC2(CC1)Nc1cc(Cl)c(Cl)cc1N=C2NCc1ccccc1 [O/S-360] | < 2000 nM | < 2000 nM | 
c1ccc(C(CNC2=Nc3ccccc3NC23CCCCC3)c2ccccc2)cc1 [C-229] | < 1000 nM | < 200 nM | 2 to 5 µM

Compound | IC50 [1] | IC50 (Pfa1 cells) | CC50 [2]
Cc1cccc(CNC2=Nc3cc(Cl)c(Cl)cc3NC23CCNCC3)c1 [N-224] | < 50 nM | < 10 nM | 1 to 2 µM
Clc1cccc(CNC2=Nc3cc(Cl)c(Cl)cc3NC23CCCCCC3)c1 [C-234] | < 500 nM | < 500 nM | 20 to 50 µM
Fc1ccc(CNC2=Nc3ccccc3NC23CCOCC3)c(F)c1 [O/S-355] | < 2000 nM | < 2000 nM | 50 to 100 µM
COc1cccc(CNC2=Nc3ccccc3NC23CCOCC3)c1 [O/S-14] | < 5000 nM | < 5000 nM | 50 to 100 µM
CN1CCC2(CC1)Nc1ccccc1N=C2NCc1cccc(C(F)(F)F)c1 [N-215] | < 50 nM | < 50 nM | 5 to 10 µM
Cc1cccc(CNC2=Nc3ccccc3NC23CCOCC3)c1 [O/S-11] | < 5000 nM | < 2000 nM | 50 to 100 µM
c1ccc(CNC2=Nc3ccccc3NC23CCCC3)cc1 [C-219] | < 5000 nM | < 2000 nM | 20 to 50 µM
CC(NC1=Nc2ccccc2NC12CCOCC2)c1ccccc1 (centres unmarked) [O/S-348] | < 5000 nM | < 5000 nM | 50 to 100 µM
CN1CCC2(CC1)Nc1cc(F)c(F)cc1N=C2NCc1ccccc1 [N-229] | < 100 nM | < 100 nM | 5 to 10 µM
Fc1cc2c(cc1F)NC1(CCCCC1)C(NCc1ccccc1)=N2 [C-238] | < 200 nM | < 500 nM | 20 to 50 µM
Fc1cccc(F)c1CNC1=Nc2ccccc2NC12CCSCC2 [O/S-351] | < 1000 nM | < 1000 nM | 50 to 100 µM
Clc1cc2c(cc1Cl)NC1(CCCCCC1)C(NCc1ccccc1)=N2 [C-235] | < 500 nM | < 200 nM | 10 to 20 µM
CC(CCc1ccccc1)NC1=Nc2ccccc2NC12CCCCC2 (centres unmarked) [C-233] | < 1000 nM | < 1000 nM | 20 to 50 µM
Cc1cc(C)cc(CNC2=Nc3ccccc3NC23CCOCC3)c1 [O/S-344] | < 2000 nM | < 1000 nM | 20 to 50 µM
CC(NC1=Nc2ccccc2NC12CCCCC2)c1ccccc1 (centres unmarked) [C-244] | < 1000 nM | < 1000 nM | 10 to 20 µM
c1ccc(CCCCNC2=Nc3ccccc3NC23CCNCC3)cc1 [N-225] | < 1000 nM | < 50 nM | 1 to 2 µM
Clc1cc2c(cc1Cl)NC1(CCCCCC1)C(NCc1ccccc1Cl)=N2 [C-243] | < 1000 nM | < 500 nM | 10 to 20 µM
Clc1cc2c(cc1Cl)NC1(CCSCC1)C(NCc1ccccc1)=N2 [O/S-349] | < 500 nM | < 200 nM | 20 to 50 µM
c1ccc(CNC2=Nc3ccccc3NC23CCNCC3)cc1 [N-206] | < 500 nM | < 200 nM | 20 to 50 µM
